In brackets after ≈: the same amount, converted by molar mass.
What was measured:
[1] = test system: Human's platelet aggregation; assay: Antiaggregational properties, ADP-induced platelet aggregation; type: cell-based; conditions: 100 μg/ml, ADP […], platelet-enriched human plasma
Source text: Human's platelet aggregation was investigated in plasma of healthy 50±3 years donors that was enriched by thrombocytes, by means of aggregometer FRM-1. […] Magnitude of a maximum non-reversible platelet aggregation in the control samples (solvent) was adopted as 100%, and that in tested samples was counted as the percentage compared to the control.

[2] = test system: Herpes virus of the type I (HSV-I/Leningrad/248/88); assay: Effect on Herpes virus, cytopathogenic action on Vero cells; type: cell-based, Herpes Simplex virus; conditions: compound 100 μg/ml; for Quantity of the unchanged cells (number of cells in 100 visual fields): Vero cells, 36 hours, cell control 10000; for percentage of protection of cells from virus: compared to the control of cell culture
[3] = Hypoglycemic activity after glucose load; type: in vivo, mice; conditions: 100 mg/kg perorally, glucose 1000 mg/kg s.c.
Procedure: Test substance (100 mg/kg) was perorally administrated to fasted mice, and, immediately after that, solution of glucose (1000 mg/kg) was administrated subcutaneously. Glucose content in blood was determined in a hour by the orthotoluidine method. Reducing of glucose level by more than 20% relative to control animals indicated hypoglycemic properties. Glibenclamide (I mg/kg) was utilized as a reference agent.

[4] = Determination of maximal tolerable dose; type: in vivo; conditions: oral administration, mice, observed 72 hours; 300 was the maximally utilized one
Procedure: Tested substance was introduced perorally (in dose of 300 mg/kg) through a gastric tube or intraperitoneally (in dose of 100 mg/kg) to no-breed white mice with mass 18-20 g (each tested group consisted of 3 males and 3 females). Then the mouse state was observed during 72 hours. Absence of symptoms characteristic of toxic effects, or absence of animal death during the given time allows to make a conclusion that the toxicity of the test substance is low. If acute toxicity effects are observed, the dose is reduced to find maximal tolerable dose.

[5] = test system: primary culture of human lymphocytes (IFN-α production); assay: Interferon-inducing activity in primary culture of human lymphocytes; type: cell-based
Procedure: Interferon synthesis induction caused by the claimed compounds was conducted on a primary culture of human lymphocytes (it is these cells in a human organism that are the main producers of interferons). To obtain lymphocyte culture, fresh blood (within 12 hours after sampling) from healthy donors (not of group II) was used. To separate lymphocytes, heparinized blood obtained from healthy donor was centrifuged in a density gradient of ficoll-verografin of […] in order to extract a fraction of immunocompetent cells. This fraction was selected and diluted with the nutrient medium RPMI-1640, containing 5% of fetal calf serum, 0.3 mg/ml of L-glutamin, 100 un/ml of penicillin, and […] of streptomycin. The concentration of lymphocytes was considered after dying them with methylene blue and calculation of cell number in Goryaev chamber. Initial solutions of the claimed compounds were diluted with the nutrient medium RPMI-1640 so that the final concentrations of the compounds, which were obtained after introduction of lymphocyte suspension, constituted the raw: 100 μg/ml, 10 μg/ml, 1 μg/ml. The final concentration of lymphocytes in the induction mixture was 3×10^6 cell/ml.
In parallels to the test samples the following controls were done: • 1). Control of spontaneous production of interferons (IFN) by lymphocytes. • 2). […] Control of spontaneous production of interferons in presence of DMSO taken in an amount corresponding to the test samples.
Control and test samples were incubated for 24 hours at the temperature of 37° C. After incubation, the samples were centrifuged at 2,000 G to deposit cell elements, and IFN-containing supernatant was separate out of samples; then the supernatant was analyzed for the quantitative content of IFN. Cell deposition was resuspended in the previous volume of nutrient medium, coloured with vital dye trypan blue, and cell number was counted in the Goryaev chamber (as described above) to determine cytotoxic action of the compounds. The quantitative determination of content of IFN in control and test samples was conducted using the immunoenzyme test system Pro Con IF2 Plus, that is intended for determination of IFN-α, which is produced by TOO “Protein contour”. The solid-phase immunoenzyme method, utilizing horse radish peroxidase as an indicator enzyme, was used to determine the quantity of interferon in the samples. Activity of the bonded peroxidase was measured using an automatic photometer for microplates with a microprocessor at the wavelength of 450 nm.
Based on the obtained results, a calibrating curve was formed, which allows to obtain data expressed in international units (IU) of activity, using the microprocessor of the automatic photometer. The results of the analysis are expressed in IU of activity of IFN per ml in the given induction system, which contains 3×10^4 lymphocyte/ml. Each test and control point was investigated in four parallels.
Controls of immunoenzyme reaction: • 1. Control of DMSO with a nutrient medium. • 2. Control of system components (according to an instruction).
The obtained data were undergone a statistical analysis using t-criterion, and calculation of the confident interval of probability at p=0.05 was carried out. Coincidence of results in the parallel tests was analyzed.

[6] = test system: cholesterol synthesis by human's fibroblasts; assay: Inhibition of cholesterol synthesis in human's fibroblasts; type: cell-based; conditions: 400 ng/ml, [2-14C] acetate incorporation, 4 hours
Procedure: Influence of the substance (400 ng/ml) on cholesterol synthesis by human's fibroblasts was investigated. […] The spots corresponding to cholesterol were removed from a plate to a vial and then were coated with scintillation liquid; after that radioactivity was measured expressed as pulse/min/mg of cell protein. Lovastatin taken in the same concentration as the tested substance was utilized as a reference agent.

[7] = Antioxidant action, riboflavine chemiluminescence; type: biochemical; conditions: solvent water, phosphate buffer pH 9.1
Source text: To assess a general antioxidant activity the method of riboflavine chemiluminescence was used. The test substance was introduced into a system consisted of phosphate buffer (pH 9.1), solution of riboflavine, and solution of bivalent iron sulfate. Chemiluminescence was initiated by 0.1% solution of hydrogen peroxide and registered by means of luminometer. […] Ascorbic acid was used as a reference agent.

[8] = Antiulcerous action, water immersion stress with immobilization; type: in vivo, rats; conditions: 20 mg/kg perorally
Procedure: Antiulcerous activity of substances was tested on a model of experimental water immersion stress with immobilization. […] After that, gastric mucous membrane was investigated, number and sizes of ulcers were counted, ulceration index was determined (an average sum of ulcer lengths per one animal in a group).

C.trachomatis D323 = assay: Action on Chlamydia trachomatis in cell culture; type: cell-based; conditions: 100 mg/l
Procedure: The antimicrobial activity of the claimed compounds was studied relative to C.trachomatis […], which is a standard strain from the collection of the chair of microbiology of St. Petersburg State Pavlov Medical University. […] Cell cultures McCoy and L929 obtained from the Institute of Cytology of RAS were used in this work. Cells were grown in flasks made of neutral glass in the medium RPMI-1640 with the addition of 10% of fetal calf serum. The test was performed in glass (non-toxic) flat-bottom flasks with cover glasses. The cells were introduced into the medium in the final concentration of […]. […] Simultaneously, tested compounds in a final concentration of 100 mg/l were added to the cells. The sample was centrifuged at 2400 G during 60 minutes at room temperature and incubated at 37° C. for 2 hours. […] The samples were doubled using the medium without cycloheximide so as to exclude its effect on the investigated compounds. The samples were incubated in a CO2-incubator for 48 hours. […] The effect of the action of substance was determined by analysis of the monolayer state and number of cells with CPI when compared with the control (cell culture infected with C.trachomatis […]); in doing so, the number of unchanged cells, that were counted in 100 visual fields obtained using the special net of the microscope eyepiece, was taken into consideration. […] Control of cell culture: morphology of cells and state of monolayer correspond to the given type of the cells; control of chlamydia growth in the cell culture: presence of CPI in the monolayer; control of action of standard antimicrobial agent: reduction of number of CPI in the monolayer as compared to the previous control; control of toxicity of the claimed compounds: toxicity is absent; control of action of solvents: toxic action on cells is absent.

[9] = Analgesic activity, tail withdrawal from radiant heat; type: in vivo, mice
Procedure: The time needed to draw back a tail placed under a directed source of radiant heat was estimated in a group of 3 mice. Prolongation of the response time by more than 50% after intraperitoneal dosing a substance (30 mg/kg) indicated analgesic activity. Morphine sulfate (2 mg/kg) was utilized as a reference agent.

[10] = Psychostimulating activity, symptom score; type: in vivo, mice; conditions: tested substances perorally 300 mg/kg, one hour after; maximum 30 points, more than 12 significant

SMILES | % of inhibition of platelet aggregation [1] | Quantity of the unchanged cells (number of cells in 100 visual fields) [2] | percentage of protection of cells from virus [2] | Maximal tolerable dose, concentration of test substances [4] | Content of IFN in induction mixture after 24-hour incubation ([5]; substance 1 mg/l) | Content of IFN in induction mixture after 24-hour incubation ([5]; substance 10 mg/l) | Content of IFN in induction mixture after 24-hour incubation ([5]; substance 100 mg/l) | IC50, suppressing chemiluminescence by 50% [7] | Number of points (psychostimulation) [10] | other results
O=C1NC(=O)N(c2cccc(C(F)(F)F)c2)C(=O)C1=NO [XXXII] | 64.3 ± 6.2% | 5000 | (50%) | 300 mg/kg | 12.5 ± 1.0 IU/3 × 10^4 lymph./ml | 77.5 ± 1.5 IU/3 × 10^4 lymph./ml | 126.5 ± 1.6 IU/3 × 10^4 lymph./ml | 6.40 µg/mL (≈ 21.2 µM) |  | % change of glucose relative to glucose control [3]: −14%; Glucose in blood ([3]; after one hour, glucose control 8.26 ± 0.50): 7.10 ± 0.28 mmol/L; % of inhibition of cholesterol synthesis [6]: 23.5%; % of animals with ulcers ([8]; rats, 4 hours stress, control 100): 100%; % of reducing number of ulcers ([8]; versus control): −52%; % of reducing ulceration index ([8]; versus control): −64%; Number of lesions ([8]; control 8.3 ± 2.5): 4.0 ± 1.3; ulceration index ([8]; control 10.5 ± 5.7): 3.8 ± 1.5
Cc1ccccc1N1C(=O)C(=NO)C(=O)NC1=S [XLII] | 35.8 ± 3.2% | 5000 | (50%) | 300 mg/kg | 28.0 ± 1.5 IU/3 × 10^4 lymph./ml | 45 ± 1.2 IU/3 × 10^4 lymph./ml | 97.5 ± 1.8 IU/3 × 10^4 lymph./ml | 9.99 µg/mL (≈ 37.9 µM) | 15 | percentage of cell protection from infection (C.trachomatis D323): (60%); Number of unchanged cells (C.trachomatis D323; 48 hours, counted in 100 visual fields, cell control 8.000, infected cells 6.000): 7.200; Latent period of response, before dosing ([9]; before intraperitoneal 30 mg/kg): 7.8; Latent period of response, 30 minutes after dosing ([9]; intraperitoneal 30 mg/kg): 11.3
CN1CCc2cccc3c2[C@H]1Cc1ccc(O)c(O)c1-3 [Apomorphine, reference compound] |  |  |  |  |  |  |  |  | 19 | 

— patent publication US7074925B1, “N-substituted derivatives of 5-oxyiminobarbituric acid” (priority 1998, dated 2006)
